Reference: patent US10150792B2, “Bismuth-containing compounds, coordination polymers, methods for modulating pharmacokinetic properties of biologically active agents, and methods for treating patients” (priority 2010, dated 2018)

Experiments:
[1] = in vivo; details: rat
Procedure: Method for Rat Pharmacokinetic Studies: Rat “feed and bleed” studies were performed with LD and synthetically prepared LD:metal complexes wherein key PK parameters, such as maximum concentration (Cmax), AUC, and time of maximum concentration (tmax) were measured vis-à-vis the reference drug, LD.
In each experiment, male Sprague-Dawley rats with jugular vein catheters (250-300 g; n=5-10) are used. These rats were obtained from a commercial source (Harlan Laboratory Animals, Dublin, Va.) and housed individually. Water was available ad libitum. Rats were fed certified rodent chow ad libitum. After arrival, the health of rats was assessed and animals were placed in quarantine for a minimum of five days during which time general health was assessed. At the end of quarantine, rats were moved to permanent animal quarters for access and study.
All studies employed oral dosing using size 9 rodent gelatin capsules from Torpac (Fairfield, N.J.). After fasting overnight, the rats are dosed at time zero with periodic blood sampling from the catheter (5-8 time points between 0 and 24 hours). Blood (200-300 μL) is drawn and collected in heparinized tubes. Plasma is separated by centrifugation and stored at −20° C. until work-up. Plasma samples are then treated according to developed methodology (e.g., FEBS Lett., 2002, 524 (1-3), 199-203), and analyzed (LC/MS/MS) for drug concentrations. Average plasma values (±SEM) for each time are calculated and PK parameters, including Cmax, tmax, and total amount absorbed (AUC0-6h), are determined using standard software.
Each study employs a crossover design whereby the LD and a metal:LD complex are tested in the same rats with a 5-day wash-out period separating the two experiments.

[2] = high orally administered doses; cited from earlier work

## N[C@@H](Cc1ccc(O)c(O)c1)C(=O)O [LD, levodopa, reference compound]
[1]; male, Sprague-Dawley, in vivo, po
  Cmax: 17 µM
[1]; male, Sprague-Dawley, in vivo, po, 20 mg/kg
  Tmax: 20 min

## O=C(O)C(Cl)Cl [DCA, dichloroacetate]
[2]
  Fraction absorbed: 100%

## tris(LD)bismuth oxide [Bi(O)(dopa)3]
[1]; FIG. 13, oral, equivalent to 20 mg/kg LD + carbidopa 10 mg/kg, sampling to 3 hours
  Course of LD plasma levels: remained at or near their peak levels for the duration of the study
[1]; FIGS. 13 and 14, oral, equivalent to 20 mg/kg LD + carbidopa 10 mg/kg
  LD plasma level at 3 hours: 10 nmol/mL
